# Results as given in patent publication US7459451B2, “Pyrazolopyridine derivatives” (Astellas Pharma Inc., priority 2004, dated 2008).
# Legend:
# [1] = target: U937 Phosphodiesterase IV (PDE IV); experiment: Inhibition of U937 Phosphodiesterase IV (PDE IV); format: biochemical; conditions: inhibitory activity on PDE-IV; enzyme preparation from U937 cells, [3H]cAMP SPA assay, CI-930 10 μM present
# Method: (a) Inhibition of U937 Phosphodiesterase IV (PDE IV)
# Cultured U937 cells were washed twice and harvested with phosphate-buffered saline (PBS) by cell-scraper. After centrifugation, the cell pellet was suspended in homogenizing buffer (0.5% deoxycholate [DOC], 5 mM 2-mercaptoethanol, 1 μM leupeptin, 100 μM PMSF, 20 μM p-tosyl-L-lysine-chloromethyl ketone [TLCK] in PBS). The cell suspension was then sonicated for a couple of minutes and homogenized by a glass-Teflon homogenizer with twenty strokes. The homogenate was centrifuged at 200 g for 30 minutes, and the supernatant was further ultra-centrifuged at 100,000×g for 90 minutes (4° C.). The final supernatant was dialyzed against dialysis buffer, which was the same component as homogenizing buffer without DOC. The dialysate of enzyme preparation was stored at −20° C. until assay.
# PDE4, activity was estimated with a Phosphodiesterase [^3H]cAMP SPA Enzyme Assay System (Amersham Pharmacia Biotech), using a 96 well Opti-plate. Reactions were initiated by addition of 0.025 μCi/well of [^3H]cAMP to the enzyme mixture containing 50 mM Tris-HCl (pH 7.5), 8.3 mM MgCl2, 1.7 mM EGTA, and various concentrations of the test compound or vehicle. CI-930 (10 μM in final), a specific PDE3, inhibitor, was also added in the reaction mixture. After incubation at 30° C. for 15 minutes, 50 μL of SPA beads suspension was added to each well. The well-plate was then shaken for 20 minutes by a plate mixer. Radio-activity in each well was counted by a Top Counter.
# Test compounds were dissolved in 100% dimethylsulfoxide (DMSO) and diluted into respective concentrations with the final solution containing 1% v/v of DMSO.
# IC50 values of test compounds for the enzyme activity of PDE4 was determined from regression analysis for log-logit conversion values of percent inhibition in the compound-treated tubes compared to that of the control. Percent inhibition was calculated with the following equation: Inhibition (%)={1−(C−B)/(A−B)}×100; in which A, B and C means mean values of radio-activity counts (dpm) of control, blank and the compound-treated tubes, respectively.
# [2] = system: TNF-alpha production in rat peripheral blood mononuclear cells (PBMC); experiment: Inhibition on TNF-alpha production in rat mononuclear cells; format: cell-based; conditions: inhibitory activity on TNF-alpha production, LPS 1 μg/mL, 24 hours, ELISA
# Method: (b) Inhibition on TNF-alpha Production in Rat Mononuclear Cells 1. Test Method (1) Rat Peripheral Blood Mononuclear Cells (PBMC) Preparation
# Male Wistar rat at the age of 15 weeks was anesthetized with ether and the blood (about 15 ml) was collected with a disposable syringe from the abdominal artery under celiotomy. Collected blood was transferred to a heparin containing polyethylene tube and an equal volume of RPMI1640 was added to each tube. Diluted blood was then piled tip to 20 ml of Lympholyte-Rat (Cedarlane Laboratories, Canada) in polystyrene centrifuge tube. After centrifugation at 3,000 rpm for 30 minutes, cells gathering in the center area of the gradient were collected by capillary and washed with 40 mL of RPMI1640 by twice of centrifugation at 1,200 rpm for 10 minutes. Precipitate was then suspended in 10 ml of Tris-ammonium-chloride buffer and stood for 10 minutes in order to lyse remaining erythrocytes. After centrifugation at 1,200 rpm for 10 minutes, the precipitate was washed twice with 50 ml of RPMI1640 by centrifugation. PBMC finally precipitated were suspended in RPMI1640 containing 1% fetal bovine serum and antibiotics. After cell counting, final suspension at 3×10^6 cells/mL in culture medium was prepared.
# (2) TNF-alpha Production from Stimulated PBMCs
# Rat PBMC prepared by the density gradient method using Lympholyte-Rat, were suspended in the culture medium mentioned above with the concentration of 3×10^6 cells/mL and 0.5 ml of the suspension was sowed into each well of a 24-well culture plate. Cells were incubated in the CO2 incubator for 24 hours with 0.25 ml of LPS in addition of 0.25 ml of concentrations of drugs or vehicle at the start of the incubation. Final concentration of LPS in the incubation medium was 1 μg/mL. After 24 hours, the supernatant of each well by centrifugation at 1,700 rpm for 10 minutes was stored at −80° C. until assay. TNF-alpha levels in the medium were measured by ELISA.
# The IC50 values of drugs on cytokine productions in LPS stimulated PBMC were estimated by the regression analysis for the relative values of cytokine level in the drug-treated wells compared to those of the vehicle-treated ones.
SMILES,IC50 [1] [nM],IC50 [2] [nM],melting point [°C]
"CCn1ncc2c(-c3cncc(Br)c3)c(C#N)c(C)nc21 [Example 73, 4-(5-bromo-3-pyridyl)-1-ethyl-6-methyl-1H-pyrazolo[3,4-b]pyridine-5-carbonitrile]",< 1000,27,165 to 166
"CCn1ncc2c(-c3cncc(Br)c3)c(/C=C/C(=O)O)c(C)nc21 [Example 84, (2E)-3-[4-(5-Bromo-3-pyridyl)-1-ethyl-6-methyl-1H-pyrazolo[3,4-b]pyridin-5-yl]acrylic acid]",< 1000,62.7,189 to 190
"CCn1ncc2c(-c3cncc(C)c3)c(/C=C/C(=O)O)c(COCC3CCCCC3)nc21 [Example 89, (2E)-3-[6-[(Cyclohexylmethoxy)methyl]-1-ethyl-4-(5-methyl-3-pyridyl)-1H-pyrazolo[3,4-b]pyridin-5-yl]acrylic acid]",< 1000,85.6,172 to 173
"CCn1ncc2c(-c3cncc(C)c3)c(/C=C/C(=O)O)c(-c3ccccc3)nc21 [Example 91, (2E)-3-[1-Ethyl-4-(5-methyl-3-pyridyl)-6-phenyl-1H-pyrazolo[3,4-b]pyridin-5-yl]acrylic acid]",< 1000,15.7,–
